Consider three molecules from patent US20240025966A1, “CD47 BLOCKADE AND COMBINATION THERAPIES THEREOF FOR REDUCTION OF VASCULAR INFLAMMATION” (The Board of Trustees of the Leland Stanford Junior …, priority 2020, published 2024).

In one test the test system is humans. Kind of test: Retrospective analysis of 18F-FDG-PET/CT scans of patients treated with magrolimab. It is filed as in vivo, human. The following applies: mean±SD, n=9. The procedure:
Study population and design. The 13 participants enrolled in the first-in-human clinical trials of magrolimab at Stanford University were identified for inclusion in this retrospective analysis. These patients had refractory or relapsed B-cell lymphoma and had become refractory to rituximab alone or in combination with chemotherapy prior to enrollment. The protocol was reviewed and approved by the institutional review board at Stanford University (IRB #55497). Participants were treated with magrolimab in combination with background rituximab therapy. […]
^18F-FDG-PET/CT scans and analysis. […] Images were anonymized and analyzed using MIM Vista version 6.9.2 (MIM Software Inc., Cleveland, OH). The analyses were performed as previously described, and vascular uptake was quantified in the carotid arteries to avoid confounding by signal present in the mediastinal lymph nodes. Briefly, the carotid artery bifurcations on both sides were identified and arterial FDG uptake was measured starting 2 cm below the carotid artery bifurcation and continuing superiorly to 2 cm into the internal carotid artery. […] The maximum target-to-background ratio (TBR) was calculated (ratio of the maximum SUV of the artery compared to background activity in the ipsilateral internal jugular vein). […] This was calculated as an average maximum TBR derived from four contiguous axial segments. […]

The next test deals with RAW 264.7 macrophages. Put plainly: Apoptosis assay (Caspase-Glo 3/7). In kind it is cell-based, mouse. The following applies: with or without 1 μM staurosporine, 4 hours. The procedure:
The apoptosis assay was performed as previously described (Kojima et al., Nature 536, 86-90, 2016). To evaluate apoptosis, the luminometric Caspase-Glo 3/7 Assay System (Promega, Catalogue #G8091) was performed on cultured murine RAW 264.7 macrophages, according to the manufacturer's protocol. Cells were seeded in 96-well plates at the density of 10,000 cells per well, grown at 37° C. and serum-starved for 24 hours. […] For quantification, an iD3 luminometer (Molecular Devices) was used.

The subject of the next test is CD47 promoter. Kind of test: CD47 promoter luciferase reporter assay. In kind it is cell-based, mouse. The following applies: smooth muscle cells, 50 ng/ml TNF-α + 10 μM atorvastatin, 24 hours. On the procedure:
The luciferase reporter assay was performed as previously described (Kojima et al., Nature 536, 86-90, 2016). CD47 LightSwitch Promoter Reporter GoClones (RenSP, S710450) and Cypridina TK Control constructs (pTK-Cluc, SN0322S) were obtained from SwitchGear Genomics. 45 ng of the RenSP reporter and 5 ng of the pTK-Cluc reporter construct were transfected into mouse smooth muscle cells using Lipofectamine 3000 Transfection 1 Reagent (Thermo Scientific, Catalogue #L3000-008) and Opti-MEM I Reduced Serum Medium (Thermo Scientific, Catalogue #31985062). […] The cell lysate and supernatant were harvested 24 hours after stimulation/treatment und dual luciferase activity was measured with the LightSwitch Luciferase Assay Kit (Active Motif, Catalogue #32031, NC0999256) and Pierce Cypridina Luciferase Glow Assay Kit (Thermo Scientific, P116170) using an iD3 luminometer (Molecular Devices). Relative luciferase activity (RenSP/Cypridina ratio) was quantified as the percentage change relative to the basal value obtained from control-transfected cells.

For another test, the system named is CD47. Kind of test: Cd47 expression by quantitative PCR, flow cytometry and immunofluorescence. It is filed as cell-based, mouse. The following applies: smooth muscle cells, 50 ng/ml TNF-α + 10 μM atorvastatin, 48 hours; compared to macrophages. The procedure: RNA was extracted from cell lysates using the miRNeasy Mini Kit (Qiagen, Catalogue #217004) according to the manufacturer's protocol or the TRIzol method (Invitrogen, Catalogue #15596026). Then, RNA was quantified with a NanoDrop One (Thermo Scientific). RNA was reverse transcribed using the High-Capacity RNA-to-cDNA Synthesis Kit (Applied 1 Biosystems, Catalogue #4387406). Quantitative PCR of the cDNA samples was performed on a ViiA7 Real-Time PCR system or a QuantStudio 5 (both Applied Biosystems). Gene expression levels were measured using TaqMan Universal Master Mix II (Applied Biosystems, Catalogue #4440047, Lot #00762728) and commercially available TaqMan primers (Applied Biosystems). Data were quantified with the 2^−ΔΔCt method and normalized to Gapdh as an internal control. […]
Cells were washed, harvested, and stained with an anti-CD47 antibody (BD Life Sciences, Catalogue #561890, FITC, MIAP301, 0.5 mg/ml) or an isotype control antibody (BD Life Sciences, Catalogue #553929, FITC, R35-95, 0.5 mg/ml) after Fc receptor blockade (BD Biosciences, Catalogue #553142, anti-mouse CD16/CD32). Expression was quantified using the LSRII (BD Life Sciences, Stanford Shared FACS Facility) and analysed by FlowJo10.7.1 (BD Life Sciences). […]

Another test has as its system NFκB1 p50. Put plainly: NFκB1 p50 nuclear translocation by immunofluorescence and Western blot. It is filed as cell-based, mouse. The note with it: smooth muscle cells, 10 μM atorvastatin + 100 μM mevalonate.

Description for NFκB1 p50: Mouse smooth muscle cells were seeded in Millicell EZ Slides 1 (Sigma-Aldrich, Catalogue #PEZGS0416 or Catalogue #PEZGS0816). […] Following stimulation/treatment, cells were rinsed with PBS and fixed with 4% phosphate-buffered paraformaldehyde. For CD47 staining (BioXCell, MIAP410, 25 μg/ml), vector mouse-on-mouse fluorescein Immunodetection Kit (Thermo Scientific, Catalogue #NC9801950) was used according to the manufacturer's instructions. For NFκB1 p105/p50 staining, cells were blocked with 5% goat serum (Sigma-Aldrich, Catalogue #G9023) for 30 minutes, then incubated with NFκB1 p105/p50 (Cell Signaling Technology, Catalogue #13586S, D4P4D, 1:200) overnight at 4° C. […] Images were captured using a Leica DMi8 microscope (equipped with a Leica DMC4500 colour camera and a Leica K5 camera for fluorescence imaging).
Total protein was isolated from mouse smooth muscle cells using a subcellular protein fractionation kit (Thermo Scientific, Catalogue #78840) supplemented with Halt Protease and Phosphatase Inhibitor Cocktail (Thermo Scientific, Catalogue #78442). The protein concentration in each sample was measured using Pierce BCA Protein Assay Kit (Thermo Scientific, Catalogue #23225). […] Membranes were then scanned with an iBright 1500 Imaging System (Thermo Scientific) for quantitative analysis using Image J/FIJI software (Version: 2.0.0/1.52p, NIH).

Regarding “magrolimab: humanized anti-CD47 antibody, the first macrophage checkpoint inhibitor”, the “18F-FDG uptake measured by maximum SUV” value in the test on humans (most diseased segment of the index vessel (carotid) after magrolimab 20 to 45 mg/kg weekly with background rituximab, baseline 2.75±0.58, p=0.01) came out at 2.09±0.53. Moreover, in the test with humans (most diseased segment of the index vessel (carotid) after magrolimab with background rituximab, baseline 1.56±0.22, p=0.006), the “18F-FDG uptake measured by maximum TBR” value is listed as 1.28±0.11.
On to `CC(C)c1c(C(=O)Nc2ccccc2)c(-c2ccccc2)c(-c2ccc(F)cc2)n1CC[C@@H](O)C[C@@H](O)CC(=O)O` [atorvastatin], for which the “rate of programmed cell death (apoptosis)” value with RAW 264.7 macrophages is “not found”. Further, in the test on CD47 promoter, the “tumor necrosis factor-α induced CD47 promoter activity” value is “inhibit”. Further, in the test on CD47, the “CD47 RNA level” value is “larger reduction” and the CD47 protein level result is “larger reduction”.
For the molecule `CC(O)(CCOP(=O)(O)O)CC(=O)O` (racemic) [DL-mevalonic acid 5-phosphate], in the test on NFκB1 p50, the “effect of atorvastatin on NFκB1 p50 nuclear translocation with the addition of mevalonate” value is “eliminated”.
